Laboratory results as given in patent US11655268B2, “Nucleoside or nucleotide derivatives, and uses thereof” (ST Pharm Co., Ltd., priority 2018, dated 2023).
Where two headings read alike, the source gives them in different places.

Tests used:
Influenza virus B/Lee/40 = assay: Cytopathic effect reduction, influenza B Lee in MDCK cells, MTT; type: cell-based; settings: for Selectivity index FluB Lee: CC50/EC50; for EC50: MDCK, 72 h, read-out: Anti-Flu activity EC50 FluB Lee
MERS-CoV = assay: microbe, parasite or virus in culture; type: cell-based, MERS virus (MERS-CoV/KOR/KNIH/002_05_2015); settings: Middle East respiratory syndrome-related coronavirus, Huh-7, 72 h, read-out: EC50 MERS-CoV
DENV = assay: Reduction in viral infection, dengue virus in Vero cells, immunofluorescence (4G2 antibody); type: cell-based, Dengue virus New Guinea C (NGC); settings: 72 h, read-out: EC50 DENV
ZIKV = assay: Reduction in viral infection, zika virus in Vero cells, immunofluorescence (4G2 antibody); type: cell-based, Zikavirus (MR766); settings: 72 h, day 3 after infection
CHIKV = assay: Cytopathic effect reduction, Chikungunya virus in Vero cells, MTT; type: cell-based; settings: 72 h, read-out: EC50 CHIKV
in vitro [1] = settings: dog
in vitro [2] = settings: human
[3] = Cytotoxicity (CC50) in Vero cells; settings: African green monkey
hCoV (229E) = assay: microbe, parasite or virus in culture; type: cell-based, Human coronavirus hCoV 229E; settings: MRC5, 72 h, read-out: EC50 hCoV (229E)
hCoV (OC43) = assay: Cytopathic effect reduction, hCoV OC43 in MRC-5 cells, MTT; type: cell-based, Human coronavirus hCoV OC43; settings: Betacoronavirus 1, OC43, MRC5, 72 h, read-out: EC50 hCoV (OC43)
FIPV = assay: Cytopathic effect reduction, FIPV in CRFK cells, MTT; type: cell-based, feline infectious peritonitis virus (FIPV); settings: read-out: EC50 FIPV
in vitro [4] = settings: human; remark: listed apart in the source
in vitro [5] = settings: cat
[6] = CC50 (DENV), Vero cells, DENV test
[7] = MRC-5 cells, day 3 after infection
[8] = Alphacoronavirus 1, 72 h, CRFK cells, day 3 after infection
[9] = read-out: CC50 (hCoV OC43), MRC-5 cells, day 3

With O=C(Nc1ccn(C2O[C@H](CO)[C@@H](O)[C@H]2F)c(=O)n1)c1cccc(-c2ccccc2)n1 (stereo in doubt) [Example 27, N-(1-((2S,3R,4R,5R)-3-fluoro-4-hydroxy-5-(hydroxymethyl)tetrahydrofuran-2-yl)-2-oxo-1,2-dihydropyrimidin-4-yl)-6-phenylpicolinamide] the “Selectivity index FluB Lee” value (Influenza virus B/Lee/40) was greater than 6.4, the EC50 (Influenza virus B/Lee/40) was 15.6 µM and the EC50 (MERS-CoV) was 20.9 µM. For the same compound, the EC50 (DENV) was 13.7 µM, the EC50 (ZIKV) was greater than 100 µM and the EC50 (CHIKV) was greater than 100 µM. The CC50 at 3 days (in vitro [1]) was greater than 100 µM, the CC50 at 3 days (in vitro [2]) was 56.6 µM and the CC50 at 3 days ([3]; CC50 (CHIKV), Vero cells, CHIKV test, MTT) was greater than 100 µM. For the same compound, the CC50 at 3 days [3, 6] was 64.4 µM and the CC50 at 3 days ([3]; CC50, Vero cells, ZIKV test) was greater than 100 µM.
Work on Nc1ccc(C(=O)Nc2ccn(C3O[C@H](CO)[C@@H](O)[C@H]3F)c(=O)n2)nc1 (stereo in doubt) [Example 31, 5-Amino-N-(1-((2S,3R,4R,5R)-3-fluoro-4-hydroxy-5-(hydroxymethyl)tetrahydrofuran-2-yl)-2-oxo-1,2-dihydropyrimidin-4-yl)picolinamide] yielded an EC50 (MERS-CoV) greater than 100 µM, an EC50 (DENV) greater than 100 µM and an EC50 (ZIKV) of 57.6 µM. The CC50 at 3 days (in vitro [2]) was greater than 100 µM, the CC50 at 3 days [3, 6] was greater than 100 µM and the CC50 at 3 days ([3]; CC50, Vero cells, ZIKV test) was greater than 100 µM.
For O=C(Nc1ccn(C2O[C@H](CO)[C@@H](O)[C@H]2F)c(=O)n1)c1ccc(F)cn1 (stereo in doubt) [Example 35, 5-Fluoro-N-(1-((2S,3R,4R,5R)-3-fluoro-4-hydroxy-5-(hydroxymethyl)tetrahydrofuran-2-yl)-2-oxo-1,2-dihydropyrimidin-4-yl)picolinamide], the “Selectivity index FluB Lee” value (Influenza virus B/Lee/40) was greater than 2.7, the EC50 (Influenza virus B/Lee/40) was 37.4 µM and the EC50 (MERS-CoV) was greater than 100 µM. The CC50 at 3 days (in vitro [1]) was greater than 100 µM and the CC50 at 3 days (in vitro [2]) was greater than 100 µM.
With O=C(Nc1ccn([C@@H]2O[C@H](CO)[C@@H](O)C2(F)F)c(=O)n1)c1cccnc1 [Example 1, N-(1-((2R,4R,5R)-3,3-difluoro-4-hydroxy-5-(hydroxymethyl)tetrahydrofuran-2-yl)-2-oxo-1,2-dihydropyrimidin-4-yl)nicotinamide] the “Selectivity index FluB Lee” value (Influenza virus B/Lee/40) was greater than 34.9, the EC50 (Influenza virus B/Lee/40) was 8.6 µM and the EC50 (MERS-CoV) was 10.4 µM. For the same compound, the EC50 (hCoV (229E)) was 4.6 µM, the EC50 (hCoV (OC43)) was 76 µM and the EC50 (FIPV; Alphacoronavirus 1, CRFK, 72 h) was 25 µM. It also gave an EC50 (DENV) of 3.42 µM, a CC50 (MRC-5 cells; human) greater than 100 µM and a CC50 at 3 days (in vitro [1]) greater than 100 µM. It also gave a CC50 at 3 days (in vitro [2]) greater than 100 µM, a CC50 (in vitro [4]) greater than 100 µM and a CC50 (in vitro [5]) of 56 µM. The CC50 at 3 days [3, 6] was greater than 100 µM.
With O=C(Nc1ccn([C@@H]2O[C@H](CO)[C@@H](O)C2(F)F)c(=O)n1)c1ccccn1 [Example 2, N-(1-((2R,4R,5R)-3,3-difluoro-4-hydroxy-5-(hydroxymethyl)tetrahydrofuran-2-yl)-2-oxo-1,2-dihydropyrimidin-4-yl)picolinamide] the “Selectivity index FluB Lee” value (Influenza virus B/Lee/40) was greater than 136.4, the EC50 (Influenza virus B/Lee/40) was 2.2 µM and the EC50 (MERS-CoV) was 1.8 µM. It also gave an EC50 (hCoV (229E)) of 0.8 µM, an EC50 (hCoV (OC43)) greater than 100 µM and an EC50 (FIPV; Alphacoronavirus 1, CRFK, 72 h) of 9.1 µM. The EC50 (DENV) was 0.72 µM, the CC50 (MRC-5 cells; human) was greater than 100 µM and the CC50 at 3 days (in vitro [1]) was greater than 100 µM. For the same compound, the CC50 at 3 days (in vitro [2]) was greater than 100 µM, the CC50 (in vitro [4]) was greater than 100 µM and the CC50 (in vitro [5]) was greater than 100 µM. For the same compound, the CC50 at 3 days [3, 6] was greater than 100 µM.
In the case of Cc1ccc(C(=O)Nc2ccn([C@@H]3O[C@H](CO)[C@@H](O)C3(F)F)c(=O)n2)cn1 [Example 4, N-(1-((2R,4R,5R)-3,3-difluoro-4-hydroxy-5-(hydroxymethyl)tetrahydrofuran-2-yl)-2-oxo-1,2-dihydropyrimidin-4-yl)-6-methylnicotinamide], the “Selectivity index FluB Lee” value (Influenza virus B/Lee/40) is reported as greater than 157.9, the EC50 (Influenza virus B/Lee/40) is reported as 1.9 µM and the EC50 (MERS-CoV) is reported as 2.2 µM. The EC50 (hCoV (229E)) was 11.1 µM, the EC50 (hCoV (OC43)) was greater than 100 µM and the EC50 (FIPV; Alphacoronavirus 1, CRFK, 72 h) was 8.1 µM. It also gave an EC50 (DENV) of 0.71 µM, a CC50 (MRC-5 cells; human) greater than 100 µM and a CC50 at 3 days (in vitro [1]) greater than 100 µM. For the same compound, the CC50 at 3 days (in vitro [2]) was greater than 100 µM, the CC50 (in vitro [4]) was greater than 100 µM and the CC50 (in vitro [5]) was greater than 100 µM. The CC50 at 3 days [3, 6] was greater than 100 µM.
In the case of O=C(Nc1ccn([C@@H]2O[C@H](CO)[C@@H](O)C2(F)F)c(=O)n1)c1cccnn1 [Example 5, N-(1-((2R,4R,5R)-3,3-difluoro-4-hydroxy-5-(hydroxymethyl)tetrahydrofuran-2-yl)-2-oxo-1,2-dihydropyrimidin-4-yl)pyridazine-3-carboxamide], the “Selectivity index FluB Lee” value (Influenza virus B/Lee/40) is reported as greater than 142.9, the EC50 (Influenza virus B/Lee/40) is reported as 2.1 µM and the EC50 (MERS-CoV) is reported as 1.4 µM. The EC50 (hCoV (229E)) was 8.9 µM, the EC50 (hCoV (OC43)) was 17.2 µM and the EC50 (FIPV; Alphacoronavirus 1, CRFK, 72 h) was 8.5 µM. It also gave an EC50 (DENV) of 0.94 µM, a CC50 (MRC-5 cells; human) greater than 100 µM and a CC50 at 3 days (in vitro [1]) greater than 100 µM. For the same compound, the CC50 at 3 days (in vitro [2]) was greater than 100 µM, the CC50 (in vitro [4]) was greater than 100 µM and the CC50 (in vitro [5]) was greater than 100 µM. It also gave a CC50 at 3 days [3, 6] greater than 100 µM.
With O=C1CCCN1c1ccn([C@@H]2O[C@H](CO)[C@@H](O)C2(F)F)c(=O)n1 [Example 7] the “Selectivity index FluB Lee” value (Influenza virus B/Lee/40) was greater than 10.6, the EC50 (Influenza virus B/Lee/40) was 9.4 µM and the EC50 (hCoV (229E); [7]) was 17.6 µM. The EC50 (hCoV (OC43); [7]) was greater than 100 µM, the EC50 (FIPV; [8]) was 77 µM and the EC50 (DENV) was 15.7 µM. The CC50 (MRC-5 cells; [9]) was greater than 100 µM, the CC50 at 3 days (in vitro [1]) was greater than 100 µM and the CC50 (in vitro [4]) was greater than 100 µM. It also gave a CC50 (in vitro [5]) greater than 100 µM and a CC50 at 3 days [3, 6] greater than 100 µM.
With O=C(Nc1ccn([C@@H]2O[C@H](CO)[C@@H](O)C2(F)F)c(=O)n1)c1ccc(F)cn1 [Example 9, N-(1-((2R,4R,5R)-3,3-difluoro-4-hydroxy-5-(hydroxymethyl)tetrahydrofuran-2-yl)-2-oxo-1,2-dihydropyrimidin-4-yl)-5-fluoropicolinamide] the “Selectivity index FluB Lee” value (Influenza virus B/Lee/40) was greater than 16.4, the EC50 (Influenza virus B/Lee/40) was 6.1 µM and the EC50 (hCoV (229E); [7]) was 2.4 µM. For the same compound, the EC50 (hCoV (OC43); [7]) was greater than 100 µM, the EC50 (FIPV; [8]) was 18 µM and the EC50 (DENV) was 1.34 µM. The CC50 (MRC-5 cells; [9]) was greater than 100 µM, the CC50 at 3 days (in vitro [1]) was greater than 100 µM and the CC50 (in vitro [4]) was greater than 100 µM. The CC50 (in vitro [5]) was greater than 100 µM and the CC50 at 3 days [3, 6] was greater than 100 µM.
In the case of Cc1ccc(C(=O)Nc2ccn([C@@H]3O[C@H](CO)[C@@H](O)C3(F)F)c(=O)n2)nc1 [Example 10, N-(1-((2R,4R,5R)-3,3-difluoro-4-hydroxy-5-(hydroxymethyl)tetrahydrofuran-2-yl)-2-oxo-1,2-dihydropyrimidin-4-yl)-5-methylpicolinamide], the “Selectivity index FluB Lee” value (Influenza virus B/Lee/40) is reported as greater than 10.2, the EC50 (Influenza virus B/Lee/40) is reported as 9.8 µM and the EC50 (hCoV (229E); [7]) is reported as 7.4 µM. The EC50 (hCoV (OC43); [7]) was greater than 100 µM, the EC50 (FIPV; [8]) was 21 µM and the EC50 (DENV) was 2.53 µM. For the same compound, the CC50 (MRC-5 cells; [9]) was greater than 100 µM, the CC50 at 3 days (in vitro [1]) was greater than 100 µM and the CC50 (in vitro [4]) was greater than 100 µM. For the same compound, the CC50 (in vitro [5]) was 92 µM and the CC50 at 3 days [3, 6] was greater than 100 µM.
For Cc1cccnc1C(=O)Nc1ccn([C@@H]2O[C@H](CO)[C@@H](O)C2(F)F)c(=O)n1 [Example 12, N-(1-((2R,4R,5R)-3,3-difluoro-4-hydroxy-5-(hydroxymethyl)tetrahydrofuran-2-yl)-2-oxo-1,2-dihydropyrimidin-4-yl)-3-methylpicolinamide], the “Selectivity index FluB Lee” value (Influenza virus B/Lee/40) was greater than 2.0, the EC50 (Influenza virus B/Lee/40) was 49.1 µM and the EC50 (hCoV (229E); [7]) was 12.2 µM. For the same compound, the EC50 (DENV) was 6.16 µM, the CC50 at 3 days (in vitro [1]) was greater than 100 µM and the CC50 (in vitro [4]) was greater than 100 µM. The CC50 at 3 days [3, 6] was greater than 100 µM.
With Cc1cccc(C(=O)Nc2ccn([C@@H]3O[C@H](CO)[C@@H](O)C3(F)F)c(=O)n2)n1 [Example 13, N-(1-((2R,4R,5R)-3,3-difluoro-4-hydroxy-5-(hydroxymethyl)tetrahydrofuran-2-yl)-2-oxo-1,2-dihydropyrimidin-4-yl)-6-methylpicolinamide] the “Selectivity index FluB Lee” value (Influenza virus B/Lee/40) was greater than 12.8, the EC50 (Influenza virus B/Lee/40) was 7.8 µM and the EC50 (hCoV (229E); [7]) was 5.8 µM. It also gave an EC50 (DENV) of 1.98 µM, a CC50 at 3 days (in vitro [1]) greater than 100 µM and a CC50 (in vitro [4]) greater than 100 µM. It also gave a CC50 at 3 days [3, 6] greater than 100 µM.
